One experiment deals with 4T1 cells. Briefly: IV (experimental) lung metastasis model of 4T1 breast cancer. The class given is in vivo, BALB/c mice.
For a further experiment, the system named is LLC-GLF cells. Briefly: IV metastasis model of Lewis lung carcinoma (LLC). The class given is in vivo, mice. Particulars: systemic 1V270 day -1. As to the method: (§1) FIGS. 27A-27D. […] Therapeutic effects of 1V270 were evaluated in IV metastatic models of 816 melanoma (A, B) and LLC (C, D). BG-albino mice (n=B-10) (A, C), C57BL6 wild type mice (n=15-20) (B and D), were i.p. administered with 200 μg 1V270 or vehicle!iNext day, 5×10^5 B16-GLF cells (A) or 1×10^5 LLC-GLF cells (c) were i.v. administered (A,C). The tumor signals were quantified by IVIS at day 14. […] (B,D) The mice were monitored daily and were euthanized upon reaching the criteria according to UCSD IACUC guidelines. The survival data were analyzed by Log-Rank test. Data were pooled from 2 independent experiments showing similar results and were analyzed by Living Image® software. […] Statistical differences were analyzed by the Mann-Whitney U test comparing 1V270 treatment groups against the vehicle. **P<0.05.
(§2) GFP and luciferase (GLF)-expressing tumor cells (2×10^4 of 4T1-GLF, 5×10^5 of B16-GLF, and […] of LLC-GLF) were i.v. injected into BALB/c mice for 4T1 models, BG-albino or wild-type C57BU6 for B16 melanoma or LLC models). […] Image data were acquired by 1 Ss exposure using the IVIS Spectrum and analyzed using the Living Image software, version 4.5.2 (Perkin Elmer, Waltham, Mass.). We confirmed that the tumor signals in the lungs at day 10 correlated with the number of lung metastasis determined on day 21, as well as the overall survival (Supplemental figures 10). […]

For the next experiment, the system named is dendritic cells. Briefly: Dendritic cell activation and CD8+ T cell recruitment in mLN and lungs. Format: in vivo, BALB/c mice. Conditions: day 7. The method, then: FIGS. 25A-25F. Innate immune cells, NK cells and dendritic cells are activated following 1V270 therapy and contribute to anti-metastatic effects (A-C) Systemic administration of 1V270 activates dendritic cells and increases CD8^+ cell recruitment in the lung draini lymph node. (A) BALB/c mice (n=S/group) were treated with 1V270 on day −1 and then tumor cells were i.v. administered on day 0. Seven days later, mediastinal lymph node (mLN) cells were stained for dendritic cells (DC; CD45^+CD11c^+MHC classll^+). (B) DCs were further stained for CD80 and CD86. (C) The mLN cells were also stained for central memory CD8^+ T cells (CD3+CD8^+CD44^+CD62L^+), effector memory CD8^+ T cells (CD3+CD8^+CD44^+CD62L^+), and naive CD8^+ T cells (CD3+CD8^+CD44^−CD62L^−). Each dot indicates an individual mouse and horizontal and vertical bars indicate means±SEM. Data are representative of 3 independent experiments showing similar results. *P<0.05, **P<0.01 by Mann-Whitney U test comparing the individual groups. (D-F) In vivo imaging analyses using GLF•expressing 4T1 cells (4T1-GLF). (D) BALB/c mice (n=14-15/group) were i.p, administered with 200 μg 1V270 or vehicle. Next day, 2×10^4 4T1-GLF cells were i.v. injected through the tail vein. Tumor signals were quantified by IVIS. Data (mean±SEM) were pooled from 3 independent experiments showing similar results. *P<0.05, **P<0.01 by two-way ANOVA using a Bonferroni post hoc test comparing treatment groups against the vehicle group. […] (E,F) NK cells recruited by 1V270 therapy prevent colonization of 4T1 cells. (E) BALB/c mice (n=G−7/group) were treated with 1V270 (200 μg/injection) on day −1 and then tumor cells were i.v. administered on day 0. On the next day, lung cells were stained for NK markers (CD45^+[…] NKp46^+CD49^+) and analyzed by flow cytometry. […] Tumor signals were analyzed as described above. […]
Since the 1V270 therapy induced a tumor-specific CD8^+ T cell response in the 4T1 model, we evaluated whether the therapy activated APCs in the lungs, and/or in the draining lymph nodes. […]

The test system of another experiment is B16-GLF cells. Briefly: IV metastasis model of B16 melanoma. Format: in vivo, mice. Particulars: systemic 1V270 day -1. The method, then: as §1, §2

The values below come from patent US20200087625A1, “METHODS FOR ISOLATING, EXPANDING AND ADMINISTERING CANCER SPECIFIC CD8+ T CELLS” (priority 2017, published 2020).

With `CCCCCCCCC=CCCCCCCCC(=O)OCC(COP(=O)(O)OCCNC(=O)c1ccc(Cn2c(=O)[nH]c3c(N)nc(OCCOC)nc32)cc1)OC(=O)CCCCCCCC=CCCCCCCCC` (centres unmarked) [1V270], in the experiment on 4T1 cells (200 μg i.p., 1 day prior to tumor inoculation), the “lung metastasis after a single administration” value was “sufficient to inhibit lung metastasis”. In addition, the “lung metastasis (number of lung nodules)” value with 4T1 cells (1V270 2, 20 or 200 μg/injection i.p. days -1, 7, 10, 14, counted day 21) is on record as “inhibited lung metastasis in a dose-dependent manner”. In the experiment with 4T1 cells (i.p., inhibition of lung metastasis), this compound gave a lowest effective dose of 20 µg. For the same compound, in the experiment with 4T1 cells (intranasal 20 or 200 μg/50 μL on days -3, -1, 3, 7, 10), the “number of lung nodules” value is listed as “inhibited the number of lung nodules in a dose-dependent manner”. The “lung metastasis (IVIS tumor signal)” value in the experiment on LLC-GLF cells (LLC-GLF, day 14) is on record as “inhibited lung metastasis by day 14”; with B16-GLF cells (B16-GLF, day 14) it was “inhibited lung metastasis by day 14”. The mouse survival entry with LLC-GLF cells (LLC) and in the experiment with B16-GLF cells (B16) was “prolonged mouse survival” each time. In the experiment on dendritic cells (1V270 i.p. day -1), the “frequencies of cells expressing co-stimulatory molecules (CD80 or CD86)” value is “significantly increased”. Also, the “recruitment of CD8+ T cells (central memory, effector memory, naive)” value with dendritic cells (mLN) was “recruitment of CD8^+ T cells with memory and nalve phenotypes”. Also, the “population of CD11c+ dendritic cells” value in the experiment on dendritic cells (mLNs and lungs, 1V270 i.p. day -1) was “increased in both mLNs and the lungs”.
